From US20230093099A1, “COMPOUNDS AND METHODS OF TREATING CANCERS” (CULLGEN (SHANGHAI), INC., priority 2019, published 2023)
pIC50: −log10 of the molar value. Like-named read-outs stand apart in the source and are kept apart here.

Experiments:
p-STAT3 = test: Immunoblot of p-STAT3 (downstream signaling) in HEL cells; assay type: cell-based; conditions: immunoblot (FIG. 1)
Experimental: To confirm JA-189 and JA-213 are true JAK degraders, HEL cell were treated with these two compounds at various compounds concentrations.
(§1) HEL, RS4;11, MV4;11, Kasumi-1 and other cells were cultured at 37° C. with 5% CO2 in RPMI 1640 or DMEM Medium supplemented with 10% fetal bovine serum. Cells were authenticated using the short tandem repeat (STR) assays. Mycoplasma test results were negative.
(§2) Rabbit anti-JAK1 antibody (3344S), anti-JAK2 antibody (3230S), anti-JAK3 antibody (8827S), anti-TYK2 antibody (14193S), anti-FLT3 antibody (3462S), anti-RET antibody (14556S), anti-phospho-STAT3 (Tyr705) antibody (9145S) and anti-phospho-STAT5 (Tyr694) antibody (4322S) were purchased from Cell Signaling Technology. Rabbit anti-GSPT1 antibody (ab126090) was purchased from Abcam. HRP-conjugated anti-α-tubulin antibody was produced in house. Media and other cell culture reagents were purchased from Thermo Fisher. The CellTiter-Glo Luminescent Assay kit was purchased from Promega.
Cultured cells were washed with cold PBS once and lysed in cold RIPA buffer supplemented with protease inhibitors and phosphatase inhibitors (Beyotime Biotechnology). […] Total protein concentrations in the lysates were determined by BCA assays (Beyotime Biotechnology). […] Protein bands were quantitated using the accompanied software provided by Bio-Rad.

WSU-DLCL2 cells = test: Cell viability assay (CellTiter-Glo) in WSU-DLCL2 cells; assay type: cell-based; conditions: Homo sapiens, WSUDLCL2, 72 h, WSU-DLCL2, DLBCL, 3 days
Experimental: (§3) MV4;11, RS4;11, Kasumi-1, HEL and other cells were treated with NVP-BSK805, TG101209 or selected degraders for 3 days at indicated concentrations following a 3-fold serial dilution.
as §1
(§4) Cells were seeded at a density of 5000 cells per well in 96-well assay plates and treated with test compounds following a 8-point or 12-point 3-fold serial dilution. Three days later, cell viability was determined using the CellTiter-Glo assay kit according to the manufacturer's instructions. The dose-response curves were determined and IC50 values were calculated using the GraphPad Prism software following a nonlinear regression (least squares fit) method.

NOMO-1 cells = test: Cell viability assay (CellTiter-Glo) in NOMO-1 cells; assay type: cell-based; conditions: Homo sapiens, 72 h, NOMO-1, AML, 3 days
Experimental: as §3, §1, §4

GSPT1 = biological target: T1, GSPT1 (Homo sapiens, UniProt P15170); test: Immunoblot of GSPT1 protein level in RS4;11 cells; assay type: cell-based; conditions: 16 hours; for GSPT1 protein level: immunoblot (FIG. 5)
T1 construct: immunoblot of GSPT1 and tubulin expressed in RS4:11 cells; endogenous in cells; host or cells: RS4;11 cells
T1 sequence (P15170 whole entry): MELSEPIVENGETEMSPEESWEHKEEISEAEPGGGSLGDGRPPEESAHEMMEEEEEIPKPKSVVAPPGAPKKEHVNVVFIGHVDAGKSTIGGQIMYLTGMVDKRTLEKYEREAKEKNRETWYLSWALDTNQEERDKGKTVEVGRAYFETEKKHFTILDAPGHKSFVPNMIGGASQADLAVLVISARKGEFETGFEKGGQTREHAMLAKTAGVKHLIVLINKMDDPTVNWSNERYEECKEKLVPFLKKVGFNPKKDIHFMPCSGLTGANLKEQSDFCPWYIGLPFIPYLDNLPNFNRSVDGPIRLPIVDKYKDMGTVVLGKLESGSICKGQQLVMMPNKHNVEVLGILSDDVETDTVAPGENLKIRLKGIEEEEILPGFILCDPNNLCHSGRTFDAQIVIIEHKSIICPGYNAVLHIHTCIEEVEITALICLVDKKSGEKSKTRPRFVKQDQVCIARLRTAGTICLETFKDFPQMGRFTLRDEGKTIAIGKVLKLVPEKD
Experimental: RS4;11 cells were treated with compounds at indicated concentrations for 16 hours. […] The concentrations required to reduce GSPT1 by 50% (DC50) were below 2 nM for compound JA-189 and 10 nM JA213.
as §1, §2
(§5) Cultured cells were washed with cold PBS once and lysed in cold RIPA buffer supplemented with protease inhibitors and phosphatase inhibitors (Beyotime Biotechnology). The solutions were then incubated at 4° C. for 30 minutes with gentle agitation to fully lyse cells. Cell lysates were centrifuged at 13,000 rpm for 10 minutes at 4° C. and pellets were discarded. Total protein concentrations in the lysates were determined by BCA assays (Beyotime Biotechnology). Cell lysates were mixed with Laemmli loading buffer to 1× and heated at 99° C. for 5 min. Proteins were resolved on SDS-PAGE and visualized by chemiluminescence. Images were taken by a ChemiDoc MP Imaging system (Bio-Rad). Protein bands were quantitated using the accompanied software provided by Bio-Rad.

SU-DHL-1 cells = test: Cell viability assay (CellTiter-Glo) in SU-DHL-1 cells; assay type: cell-based; conditions: Homo sapiens, 72 h, SU-DHL-1, large cell lymphoma, 3 days
Experimental: as §3, §1, §4

[1] = tested on: immortalized human lung fibroblast IMR-90 cells; test: Cell viability of non-cancerous lung fibroblast IMR-90 cells; assay type: cell-based; conditions: IMR-90, 3 days, 3-fold serial dilution (FIG. 6)
Experimental: (§6) Immortalized human lung fibroblast IMR-90 and keratinocyte HACAT cells were treated with JA-189 or JA-213 for 3 days at indicated concentrations following a 3-fold serial dilution.
as §4

NCI-H929 cells = test: Cell viability assay (CellTiter-Glo) in NCI-H929 cells; assay type: cell-based; conditions: Homo sapiens, 72 h, NCI-H929, Multiple Myeloma, 3 days
Experimental: as §3, §1, §4

MOLT-4 cells = test: Cell viability assay (CellTiter-Glo) in MOLT-4 cells; assay type: cell-based; conditions: Homo sapiens, 72 h, MOLT-4, T-ALL, 3 days
Experimental: as §3, §1, §4

MEG-01 cells = test: Cell viability assay (CellTiter-Glo) in MEG-01 cells; assay type: cell-based; conditions: Homo sapiens, 72 h, MEG-01, CML, 3 days
Experimental: as §3, §1, §4

HL-60 cells = test: Cell viability assay (CellTiter-Glo) in HL-60 cells; assay type: cell-based; conditions: Homo sapiens, 72 h, HL-60, APL, 3 days
Experimental: as §3, §1, §4

keratinocyte HACAT cells = test: Cell viability of non-cancerous keratinocyte HACAT cells; assay type: cell-based, human; conditions: 3 days, 3-fold serial dilution (FIG. 6)
Experimental: as §6, §4

JAK2-V617F = biological target: T2, JAK2-V617F (Homo sapiens, UniProt O60674, V617F); test: Immunoblot of JAK2 protein level in HEL cells; assay type: cell-based; conditions: 24 hours; for JAK2 protein level: HEL cells, immunoblot (FIG. 1)
T2 construct: immunoblot of JAK1/2/3 proteins expressed in HEL cells; endogenous in cells; host or cells: HEL cells
T2 sequence (O60674 whole entry V617F): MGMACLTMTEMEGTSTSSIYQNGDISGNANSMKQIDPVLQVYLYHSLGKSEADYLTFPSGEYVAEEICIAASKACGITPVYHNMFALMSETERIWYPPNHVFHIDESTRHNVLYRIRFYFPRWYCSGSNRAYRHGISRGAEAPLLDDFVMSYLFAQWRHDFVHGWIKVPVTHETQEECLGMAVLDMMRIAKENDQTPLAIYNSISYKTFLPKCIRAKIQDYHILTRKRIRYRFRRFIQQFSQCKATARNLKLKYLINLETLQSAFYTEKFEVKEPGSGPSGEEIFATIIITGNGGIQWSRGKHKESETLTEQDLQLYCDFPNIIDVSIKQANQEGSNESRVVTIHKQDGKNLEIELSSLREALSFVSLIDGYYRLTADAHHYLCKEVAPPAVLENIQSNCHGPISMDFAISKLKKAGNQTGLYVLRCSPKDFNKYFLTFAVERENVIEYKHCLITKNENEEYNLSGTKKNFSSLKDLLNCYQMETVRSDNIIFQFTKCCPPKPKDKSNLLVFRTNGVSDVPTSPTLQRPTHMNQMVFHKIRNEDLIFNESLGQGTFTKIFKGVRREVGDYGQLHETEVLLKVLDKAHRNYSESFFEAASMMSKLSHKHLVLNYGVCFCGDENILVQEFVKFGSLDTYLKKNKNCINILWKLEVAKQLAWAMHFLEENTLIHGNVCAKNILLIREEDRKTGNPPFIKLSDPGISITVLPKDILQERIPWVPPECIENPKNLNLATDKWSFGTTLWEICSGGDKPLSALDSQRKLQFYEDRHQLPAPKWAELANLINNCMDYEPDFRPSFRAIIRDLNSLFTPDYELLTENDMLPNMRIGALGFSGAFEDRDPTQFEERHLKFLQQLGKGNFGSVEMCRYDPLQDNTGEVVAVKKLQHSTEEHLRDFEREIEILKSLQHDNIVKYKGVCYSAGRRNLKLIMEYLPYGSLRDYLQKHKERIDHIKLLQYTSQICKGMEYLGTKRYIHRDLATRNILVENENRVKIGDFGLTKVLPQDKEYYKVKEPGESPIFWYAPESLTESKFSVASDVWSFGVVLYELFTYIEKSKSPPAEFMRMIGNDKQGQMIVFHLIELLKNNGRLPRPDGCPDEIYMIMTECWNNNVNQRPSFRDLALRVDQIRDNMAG
Experimental: HEL cells harboring JAK2-V617F mutation were treated with compounds at indicated concentrations for 24 hours. […] The concentrations required to reduce JAK2-V617 by 50% (DC50) were below 60 nM for compound JA-213.
as §1, §2, §5

CCRF-CEM cells = test: Cell viability assay (CellTiter-Glo) in CCRF-CEM cells; assay type: cell-based; conditions: Homo sapiens, 72 h, T-ALL, 3 days
Experimental: as §3, §1, §4

Pfeiffer cells = test: Cell viability assay (CellTiter-Glo) in Pfeiffer cells; assay type: cell-based; conditions: Homo sapiens, 72 h, DLBCL, 3 days
Experimental: as §3, §1, §4

RS4;11 cells = test: Cell viability assay (CellTiter-Glo) in RS4;11 cells; assay type: cell-based; conditions: for pIC50: Homo sapiens, 72 h; for cell viability inhibition in combination with pomalidomide: RS4;11, 3 days, pomalidomide at 10 μM (FIG. 4)
Method in brief: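 RS4;11 cells seeded at 5000 per well, exposed for 3 days to 8- or 12-point 3-fold serial dilutions. Viability read by CellTiter-Glo luminescence; IC50 fitted by nonlinear least-squares regression.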

AMO-1 cells = test: Cell viability assay (CellTiter-Glo) in AMO-1 cells; assay type: cell-based; conditions: Homo sapiens, AMO1, 72 h, AMO-1, Multiple Myeloma, 3 days
Experimental: as §3, §1, §4

[2] = RS4;11 ALL cells treated for three days, read-out: cell viability inhibition IC50
[3] = RS4;11 cells, cell viability, 3 days, CellTiter-Glo, read-out: IC50

| Compound | down stream signaling, p-STAT3 band (p-STAT3) | pIC50 (WSU-DLCL2 cells) | pIC50 (NOMO-1 cells) | GSPT1 protein level (GSPT1) | pIC50 (SU-DHL-1 cells) | sensitivity of non-cancerous cells (cell viability) [1] | pIC50 (NCI-H929 cells) | pIC50 (MOLT-4 cells) | pIC50 (MEG-01 cells) | pIC50 (HL-60 cells) | sensitivity of non-cancerous cells (cell viability) (keratinocyte HACAT cells) | DC50 (JAK2-V617F; HEL cells harboring JAK2-V617F, immunoblot, read-out: concentration required to reduce JAK2-V617 by 50% (DC50)) [nM] | JAK2 protein level (JAK2-V617F) | pIC50 (CCRF-CEM cells) | pIC50 (Pfeiffer cells) | pIC50 (RS4;11 cells; [2]) | pIC50 (RS4;11 cells; [3]) | cell viability inhibition in combination with pomalidomide (RS4;11 cells) | pIC50 (AMO-1 cells) | DC50 (GSPT1; immunoblot, read-out: concentration required to reduce GSPT1 by 50% (DC50)) [nM] |
| --- | --- | --- | --- | --- | --- | --- | --- | --- | --- | --- | --- | --- | --- | --- | --- | --- | --- | --- | --- | --- |
| CS(=O)(=O)c1ccc(-c2cccc3nc(Nc4ccc(N5CCN(CC(=O)NCCCCCCCCNc6ccc7c(c6)C(=O)N(C6CCC(=O)NC6=O)C7=O)CC5)cc4)nn23)cc1 (centres unmarked) [JA-213] | weaker bands of p-STAT3 and p-STAT5 | 6.77 | 7.09 | induced degradation of GSPT1 in a dose dependent manner | 6.50 | not sensitive | 6.91 | 7.78 | 7.13 | 7.72 | not sensitive | < 60 | able to reduce JAK1, JAK2 and JAK3 protein levels | 7.72 | 6.57 | > 7.00 | 8.07 | greatly reduce the potencies of the degraders | 6.14 |  |
| O=C1CCC(N2C(=O)c3ccc(NCCCCCC(=O)N4CCC(n5cc(-c6cnc7cccc(-c8cc(F)c(CN9CCOCC9)c(F)c8)c7n6)cn5)CC4)cc3C2=O)C(=O)N1 (centres unmarked) [JA-189, 5-((6-(4-(4-(8-(3,5-difluoro-4-(morpholinomethyl)phenyl)quinoxalin-2-yl)-1H-pyrazol-1-yl)piperidin-1-yl)-6-oxohexyl)amino)-2-(2,6-dioxopiperidin-3-yl)isoindoline-1,3-dione] | weaker bands of p-STAT3 and p-STAT5 | 6.97 | 7.27 | induced degradation of GSPT1 in a dose dependent manner | 6.65 | not sensitive | 6.98 | 8.20 | 7.05 | 8.60 | not sensitive |  | able to reduce JAK1, JAK2 and JAK3 protein levels | 8.42 | 6.49 | > 7.00 | 8.69 | greatly reduce the potencies of the degraders | 6.21 | < 2 |
